# Assay results as given in patent publication US10765651B2, “Co-crystals of substituted glycine and uses thereof” (SyneuRx International (Taiwan) Corp., priority 2017, dated 2020).
# Columns and labels:
# [1] = Hygroscopicity test, condition 2 (humidity chamber, weight change); type: physicochemical; settings: for Weight change (%): dry before (change on drying to 0 hr weight)
# [2] = Hygroscopicity test, condition 3 (dynamic vapor sorption, 0 to 90 to 0% RH); type: physicochemical; settings: DVS, 25° C.
# Method: Measurement were taken from 0 to 90 to 0% RH at 25° C. with 10% RH per step with equilibration set to dm/dt+0.01%/min for 10 min or 180 min/step.
# [3] = Hygroscopicity test of fumaric acid co-crystals under ambient conditions; type: physicochemical
# Method: 0.1 to 0.5 g of each of 1:1, 2:1, 3:1, and 6:1 N-methylglycine co-crystals were placed in the vial under the ambient conditions. The weight changes at various time points of each co-crystal were measured and illustrated in Table 4 below.
# [4] = 70-75% RH, room temperature, 3 days
# [5] = 30° C., 75% RH, 5 hr, listed as 1:1 N-methylglycine:DL-tartaric acid co-crystal
# [6] = 30° C., 75% RH, 72 hr, listed as 2:1 N-methylglycine:L-tartaric acid co-crystal
compound,measurement,setting,value
"CNCC(=O)O.O=C(O)C(O)C(O)C(=O)O (racemic) [N-MG/DL-TA = 1/1, N-methylglycine:DL-tartaric acid 1:1 co-crystal]",Weight,"[1]; 30° C., 75% RH, 0 hr",0.1302 g
same,Weight,"[1]; 30° C., 75% RH, 1 hr",0.1349 g
same,"Weight change (%), water absorbed","[1]; 30° C., 75% RH, 1 hr",(+3.6%)
same,Outward (appearance),"[1]; 30° C., 75% RH, 2 hr",Wet
same,Weight,"[1]; 30° C., 75% RH, 2 hr",0.1399 g
same,"Weight change (%), water absorbed","[1]; 30° C., 75% RH, 2 hr",(+7.4%)
same,Weight,"[1]; 30° C., 75% RH, 3 hr",0.1469 g
same,"Weight change (%), water absorbed","[1]; 30° C., 75% RH, 3 hr",(+12.8%)
same,Outward (appearance),"[1]; 30° C., 75% RH, 5 hr",Partial
same,Weight,"[1]; 30° C., 75% RH, 5 hr",0.1545 g
same,"Weight change (%), water absorbed","[1]; 30° C., 75% RH, 5 hr",(+18.7%)
same,Outward (appearance),[1]; [5],started to turn into a partial liquid
same,"Weight change (%), water absorbed",[1]; [5],18.7%
same,Outward (appearance),"[1]; 30° C., 75% RH, 24 hr",50%
same,Weight,"[1]; 30° C., 75% RH, 24 hr",0.1819 g
same,"Weight change (%), water absorbed","[1]; 30° C., 75% RH, 24 hr",(+39.7%)
same,Weight,"[1]; 30° C., 75% RH, 48 hr",0.1819 g
same,"Weight change (%), water absorbed","[1]; 30° C., 75% RH, 48 hr",(+39.7%)
same,Weight,"[1]; 30° C., 75% RH, 72 hr",0.1823 g
same,"Weight change (%), water absorbed","[1]; 30° C., 75% RH, 72 hr",(+40.0%)
same,Hygroscopicity comparison,"[1]; 30° C., 75% RH, listed as 1:1 N-methylglycine:DL-tartaric acid co-crystal",much less hygroscopic than 2:1 N-methylglycine:DL-tartaric acid co-crystal
same,Outward (appearance),[1]; dry before,White
same,Weight,[1]; dry before,0.1305 g
same,Weight change (%),[1],(−0.2%)
"CNCC(=O)O.CNCC(=O)O.O=C(O)C(O)C(O)C(=O)O (racemic) [N-MG/DL-TA = 2/1, N-methylglycine:DL-tartaric acid 2:1 co-crystal]",Weight,"[1]; 30° C., 75% RH, 0 hr",0.1628 g
same,Weight,"[1]; 30° C., 75% RH, 1 hr",0.1695 g
same,"Weight change (%), water absorbed","[1]; 30° C., 75% RH, 1 hr",(+4.1%)
same,Outward (appearance),"[1]; 30° C., 75% RH, 2 hr",Wet
same,Weight,"[1]; 30° C., 75% RH, 2 hr",0.1768 g
same,"Weight change (%), water absorbed","[1]; 30° C., 75% RH, 2 hr",(+8.6%)
same,Weight,"[1]; 30° C., 75% RH, 3 hr",0.1816 g
same,"Weight change (%), water absorbed","[1]; 30° C., 75% RH, 3 hr",(+11.5%)
same,Outward (appearance),"[1]; 30° C., 75% RH, 5 hr",Partial
same,Weight,"[1]; 30° C., 75% RH, 5 hr",0.1877 g
same,"Weight change (%), water absorbed","[1]; 30° C., 75% RH, 5 hr",(+15.3%)
same,Outward (appearance),"[1]; 30° C., 75% RH, 24 hr",Liquid
same,Weight,"[1]; 30° C., 75% RH, 24 hr",0.2374 g
same,"Weight change (%), water absorbed","[1]; 30° C., 75% RH, 24 hr",(+45.8%)
same,Weight,"[1]; 30° C., 75% RH, 48 hr",0.2423 g
same,"Weight change (%), water absorbed","[1]; 30° C., 75% RH, 48 hr",(+48.8%)
same,Weight,"[1]; 30° C., 75% RH, 72 hr",0.2441 g
same,"Weight change (%), water absorbed","[1]; 30° C., 75% RH, 72 hr",(+49.9%)
same,Outward (appearance),[1]; dry before,White
same,Weight,[1]; dry before,0.1628 g
same,Weight change (%),[1],(−0%)
same,Change In Mass (%),[2]; RH 0%,0.00%
same,Change In Mass (%),[2]; RH 10%,0.15%
same,Change In Mass (%),[2]; RH 20%,0.21%
same,Change In Mass (%),[2]; RH 30%,0.26%
same,Change In Mass (%),[2]; RH 40%,0.77%
same,Change In Mass (%),[2]; RH 60%,2.03%
same,Change In Mass (%),[2]; RH 70%,3.12%
same,Change In Mass (%),[2]; RH 80%,8.12%
same,Change In Mass (%),[2]; RH 90%,30.35%
CNCC(=O)O.CNCC(=O)O.O=C(O)C(O)C(O)C(=O)O (racemic) [N-methylglycine:DL-tartaric acid 2:1 co-crystal],Change In Mass (%),[2]; RH 70%,3.12%
same,Change In Mass (%),[2]; RH 90%,30.35%
"CNCC(=O)O.CNCC(=O)O.O=C(O)C(O)C(O)C(=O)O [N-MG/D-TA = 2/1, N-methylglycine:D-tartaric acid 2:1 co-crystal]",Change In Mass (%),[2]; RH 0%,0.00%
same,Change In Mass (%),[2]; RH 10%,0.02%
same,Change In Mass (%),[2]; RH 20%,0.04%
same,Change In Mass (%),[2]; RH 30%,0.07%
same,Change In Mass (%),[2]; RH 40%,0.10%
same,Change In Mass (%),[2]; RH 50%,0.15%
same,Change In Mass (%),[2]; RH 60%,0.20%
same,Change In Mass (%),[2]; RH 70%,0.31%
same,Change In Mass (%),[2]; RH 80%,0.60%
same,Change In Mass (%),[2]; RH 90%,14.27%
"CNCC(=O)O.O=C(O)/C=C/C(=O)O [N-MG/FA = 1/1, N-methylglycine:fumaric acid (1:1 co-crystal)]",Hygroscopicity comparison,[3],"much less hygroscopic than the 2:1, 3:1, and 6:1 co-crystals"
same,Change In Mass (%),[3]; 1 hr,0.48%
same,Change In Mass (%),[3]; 2 hr,0.67%
same,Change In Mass (%),[3]; 3 hr,0.57%
same,Change In Mass (%),[3]; 4 hr,0.57%
same,Change In Mass (%),[3]; 5 hr,0.57%
same,Change In Mass (%),[3]; 21 hr,0.96%
same,Change In Mass (%),[3]; 24 hr,0.96%
same,Change In Mass (%),[3]; 45 hr,0.96%
same,Change In Mass (%),[3]; 48 hr,0.96%
same,Change In Mass (%),[3]; 96 hr,0.96%
"CNCC(=O)O.CNCC(=O)O.O=C(O)/C=C/C(=O)O [N-MG/FA = 2/1, N-methylglycine:fumaric acid (2:1 co-crystal)]",Change In Mass (%),[3]; 15 hr,5.81%
same,Change In Mass (%),[3]; 21 hr,6.29%
same,Change In Mass (%),[3]; 45 hr,7.08%
same,Change In Mass (%),[3]; 48 hr,7.12%
same,Change In Mass (%),[3]; 64 hr,7.49%
"CNCC(=O)O.CNCC(=O)O.CNCC(=O)O.O=C(O)/C=C/C(=O)O [N-MG/FA = 3/1, N-methylglycine:fumaric acid (3:1 co-crystal)]",Change In Mass (%),[3]; 15 hr,18.29%
same,Change In Mass (%),[3]; 21 hr,20.78%
same,Change In Mass (%),[3]; 45 hr,26.13%
same,Change In Mass (%),[3]; 48 hr,26.37%
same,Change In Mass (%),[3]; 64 hr,29.22%
"CNCC(=O)O.CNCC(=O)O.CNCC(=O)O.CNCC(=O)O.CNCC(=O)O.CNCC(=O)O.O=C(O)/C=C/C(=O)O [N-MG/FA = 6/1, N-methylglycine:fumaric acid (6:1 co-crystal)]",Change In Mass (%),[3]; 15 hr,18.30%
same,Change In Mass (%),[3]; 21 hr,25.14%
same,Change In Mass (%),[3]; 45 hr,47.59%
same,Change In Mass (%),[3]; 48 hr,48.84%
same,Change In Mass (%),[3]; 64 hr,56.36%
"CNCC(=O)O.CNCC(=O)O.O=C(O)C(O)C(O)C(=O)O [N-MG/L-TA = 2/1, N-methylglycine:L-tartaric acid 2:1 co-crystal]",Weight,"[1]; 30° C., 75% RH, 0 hr",0.1455 g
same,Weight,"[1]; 30° C., 75% RH, 1 hr",0.1462 g
same,"Weight change (%), water absorbed","[1]; 30° C., 75% RH, 1 hr",(+0.4%)
same,Weight,"[1]; 30° C., 75% RH, 2 hr",0.1463 g
same,"Weight change (%), water absorbed","[1]; 30° C., 75% RH, 2 hr",(+0.5%)
same,Weight,"[1]; 30° C., 75% RH, 3 hr",0.1464 g
same,"Weight change (%), water absorbed","[1]; 30° C., 75% RH, 3 hr",(+0.6%)
same,Weight,"[1]; 30° C., 75% RH, 5 hr",0.1465 g
same,"Weight change (%), water absorbed","[1]; 30° C., 75% RH, 5 hr",(+0.7%)
same,Weight,"[1]; 30° C., 75% RH, 24 hr",0.1465 g
same,"Weight change (%), water absorbed","[1]; 30° C., 75% RH, 24 hr",(+0.7%)
same,Weight,"[1]; 30° C., 75% RH, 48 hr",0.1465 g
same,"Weight change (%), water absorbed","[1]; 30° C., 75% RH, 48 hr",(+0.7%)
same,Outward (appearance),"[1]; 30° C., 75% RH, 72 hr",Partial
same,Weight,"[1]; 30° C., 75% RH, 72 hr",0.1471 g
same,"Weight change (%), water absorbed","[1]; 30° C., 75% RH, 72 hr",(+1.1%)
same,Outward (appearance),[1]; [6],turned into a partial liquid
same,"Weight change (%), water absorbed",[1]; [6],1.1%
same,Outward (appearance),[1]; dry before,White
same,Weight,[1]; dry before,0.1457 g
same,Weight change (%),[1],(−0.1%)
same,Change In Mass (%),[2]; RH 0%,0.00%
same,Change In Mass (%),[2]; RH 10%,0.01%
same,Change In Mass (%),[2]; RH 20%,0.03%
same,Change In Mass (%),[2]; RH 30%,0.05%
same,Change In Mass (%),[2]; RH 40%,0.07%
same,Change In Mass (%),[2]; RH 50%,0.09%
same,Change In Mass (%),[2]; RH 60%,0.13%
same,Change In Mass (%),[2]; RH 70%,0.18%
same,Change In Mass (%),[2]; RH 80%,0.32%
same,Change In Mass (%),[2]; RH 90%,10.74%
same,Appearance after exposure to high humidity,[4],turned into moisturized and somewhat sticky white solid
CNCC(=O)O.CNCC(=O)O.O=C(O)C(O)C(O)C(=O)O [N-methylglycine:D-tartaric acid 2:1 co-crystal],Change In Mass (%),[2]; RH 70%,0.31%
same,Change In Mass (%),[2]; RH 90%,14.27%
CNCC(=O)O.CNCC(=O)O.O=C(O)C(O)C(O)C(=O)O [N-methylglycine:L-tartaric acid 2:1 co-crystal],Change In Mass (%),[2]; RH 70%,0.18%
same,Change In Mass (%),[2]; RH 90%,10.74%
